In patent publication US20230150946A1, “HETEROCYCLE CONTAINING STAT INHIBITORS AND COMPOSITIONS” (JANPIX LIMITED, priority 2020, published 2023):
Like-named read-outs stand apart in the source and are kept apart here.

Legend:
MV4-11 cells = assay: MV4-11 Cell Cytotoxicity Assay (CellTiter-Blue, 72 h); format: cell-based, human; conditions: 72 h at 37° C.
Protocol: In some embodiments, the potency of the STAT5 inhibitors are evaluated by an in vitro assay such as MV4-11 Cell Cytotoxicity Assay. MV4-11 cells were grown in Iscove's Modified Dulbecco's Medium (IMDM) supplemented with 10% fetal bovine serum (FBS). 10,000 cells were plated per well in 96-well flat-bottom sterile culture plates with low-evaporation lids. After 24 h, inhibitors and a vehicle control (0.5% DMSO) were added and the cells were incubated for 72 h at 37° C. in 5% CO2. Inhibitors were examined in triplicate at a maximal concentration of 50 μM, followed by 1:2 dilutions in subsequent wells (25, 12.5, 6.25, 3.125, 1.5625, 0.78125, 0.390625, 0.195313 and 0.097656 μM). After 72 h, the wells were treated with CellTiter-Blue® (20 μL/well), and the plates were incubated using standard cell culture conditions for 1 hour. Fluorescence was measured at 560/590 nm.

[1] = Reactivity Profiling with Glutathione (GSH), HPLC; format: in vitro ADME; conditions: 5 mM glutathione (GSH) in cell culture medium, 25 μM inhibitor, IMDM 10% FBS, 0.5% DMSO, 25° C., read-out: T1/2-GSH
Protocol: In some embodiments, metabolic stability of the compounds are evaluated according to their reactivity profiles with GSH.
3.5 μL of 5 mM stocking solution of the inhibitors in DMSO was added to 697.5 μL of Iscove's Modified Dulbecco's Medium (IMDM) supplemented with 10% FBS and antibiotic antimycotic solution, with 5 mM glutathione to afford a final concentration of 25 μM inhibitor with 0.5% DMSO. The solution was then immediately placed in the sample tray at 25° C. Sample was analyzed at pre-defined intervals, typically every 1.5 hours, for up to four injections, by HPLC, included at time zero, without further pre-treatment. For each inhibitor, its peak is integrated at different time points and compared to the time zero injection in order to obtain a percentage remaining. Half-life is calculated according to a first order reaction kinetic taking into account those time points for which remaining percentage of inhibitor is above 40%, using the formula: t½=Ln(2)/k, where k is the slope of the linear plot of Ln[Inhibitor] vs time, according to the formula: Ln[A]=Ln[A]0−kt, where [A] is the value resulting from the integration at each time point, [A]0 the value at time zero, and t the time. For each inhibitor, both replicates are averaged and the resulting t½ reported. Selective reactivity against GSH in particular is confirmed by incubation of the inhibitor in the same solution without the presence of GSH, and single analysis after a time longer than the latest time point analyzed for the samples with GSH.

[2] = Homo sapiens, Table 3, read-out: IC50-MV-4-11

Molecule	IC50 (MV4-11 cells; [2])	half-life at 25 μM [1]	further results
CN(C)c1c(NCCCN(Cc2cc(C3CC3)cc(C(C)(C)C)c2)C(=O)CN(Cc2ccccc2F)S(=O)(=O)c2c(F)c(F)c(F)c(F)c2F)c(=O)c1=O [Compound 1015, N-(3-(tert-butyl)-5-cyclopropylbenzyl)-N-(3-((2-(dimethylamino)-3,4-dioxocyclobut-1-en-1-yl)amino)propyl)-2-(N-(2-fluorobenzyl)-(2,3,4,5,6-pentafluorophenyl)sulfonamido)acetamide]	0.01 to 1000 nM		
CC(C)(C)c1cc(CN(C(=O)CN(Cc2ccc(Cl)cc2)S(=O)(=O)c2c(F)c(F)c(F)c(F)c2F)c2ccc(N)nc2)cc(C2CC2)c1 [Compound 1007, N-(6-aminopyridin-3-yl)-N-(3-(tert-butyl)-5-cyclopropylbenzyl)-2-(N-(4-chlorobenzyl)-(2,3,4,5,6-pentafluorophenyl)sulfonamido)acetamide]	1000 to 3160 nM		
CC(C)(C)c1cc(CN(C(=O)CN(Cc2cnccc2C(F)(F)F)S(=O)(=O)c2c(F)c(F)c(F)c(F)c2F)c2cnc(N)nc2)cc(C2CC2)c1 [Compound 1017, N-(2-aminopyrimidin-5-yl)-N-(3-(tert-butyl)-5-cyclopropylbenzyl)-2-(N-((4-(trifluoromethyl)pyridin-3-yl)methyl)-(2,3,4,5,6-pentafluorophenyl)sulfonamido)acetamide]	0.01 to 1000 nM		
CC(C)(C)c1cc(CN(C(=O)CN(Cc2ccccc2F)S(=O)(=O)c2c(F)c(F)c(F)c(F)c2F)c2cnc(N)nc2)cc(C2CC2)c1 [Compound 1009, N-(2-aminopyrimidin-5-yl)-N-(3-(tert-butyl)-5-cyclopropylbenzyl)-2-(N-(2-fluorobenzyl)-(2,3,4,5,6-pentafluorophenyl)sulfonamido)acetamide]	0.01 to 1000 nM	4.12 to 9.23 h	
CN(C)c1c(NCCN(Cc2cc(C3CC3)cc(C(C)(C)C)c2)C(=O)CN(Cc2c(F)cc(F)cc2F)S(=O)(=O)c2c(F)c(F)c(F)c(F)c2F)c(=O)c1=O [Compound 1011, N-(3-(tert-butyl)-5-cyclopropylbenzyl)-N-(2-((2-(dimethylamino)-3,4-dioxocyclobut-1-en-1-yl)amino)ethyl)-2-(N-(2,4,6-trifluorobenzyl)-(2,3,4,5,6-pentafluorophenyl)sulfonamido)acetamide]	0.01 to 1000 nM		
CC(C)(C)c1cc(CN(C(=O)CN(Cc2ccc(Cl)cc2)S(=O)(=O)c2c(F)c(F)c(F)c(F)c2F)c2cccnc2)cc(C2CC2)c1 [Compound 1001, N-(3-(tert-butyl)-5-cyclopropylbenzyl)-2-(N-(4-chlorobenzyl)-(2,3,4,5,6-pentafluorophenyl)sulfonamido)-N-(pyridin-3-yl) acetamide]	1000 to 3160 nM		
CC(C)(C)c1cc(CN(C(=O)CN(Cc2ccc(Cl)cc2)S(=O)(=O)c2c(F)c(F)c(F)c(F)c2F)c2ccc(C(=O)O)nc2)cc(C2CC2)c1 [Compound 1004, 5-(N-(3-(tert-butyl)-5-cyclopropylbenzyl)-2-(N-(4-chlorobenzyl)-(2,3,4,5,6-pentafluorophenyl)sulfonamido)acetamido) picolinic acid]	3160 to 100000 nM		
N-(3-(tert-butyl)-5- cyclopropylbenzyl)-2-(N-(4- chlorobenzyl)-(2,3,4,5,6- pentafluorophenyl) sulfonamido)-N-(2- methoxypyrimidin-5-yl) acetamide [Compound 1003]			IC50 (MV4-11 cells; Table 3, read-out: IC50-MV-4-11): 1000 to 3160 nM
CC(C)(C)c1cc(CN(C(=O)CN(Cc2ccccc2F)S(=O)(=O)c2c(F)c(F)c(F)c(F)c2F)c2ccc(N)nc2)cc(C2CC2)c1 [Compound 1008, N-(6-aminopyridin-3-yl)-N-(3-(tert-butyl)-5-cyclopropylbenzyl)-2-(N-(2-fluorobenzyl)-(2,3,4,5,6-pentafluorophenyl)sulfonamido)acetamide]	1000 to 3160 nM		
CN(C)c1c(N(C)CCN(Cc2cc(C3CC3)cc(C(C)(C)C)c2)C(=O)CN(Cc2ccccc2F)S(=O)(=O)c2c(F)c(F)c(F)c(F)c2F)c(=O)c1=O [Compound 1014, N-(3-(tert-butyl)-5-cyclopropylbenzyl)-N-(2-((2-(dimethylamino)-3,4-dioxocyclobut-1-en-1-yl) (methyl)amino)ethyl)-2-(N-(2-fluorobenzyl)-(2,3,4,5,6-pentafluorophenyl)sulfonamido)acetamide]	0.01 to 1000 nM	9.23 to 1670 h	
CN(C)c1c(NCCN(Cc2cc(C3CC3)cc(C(C)(C)C)c2)C(=O)CN(Cc2cnccc2C(F)(F)F)S(=O)(=O)c2c(F)c(F)c(F)c(F)c2F)c(=O)c1=O [Compound 1012, N-(3-(tert-butyl)-5-cyclopropylbenzyl)-N-(2-((2-(dimethylamino)-3,4-dioxocyclobut-1-en-1-yl)amino)ethyl)-2-(N-((4-(trifluoromethyl)pyridin-3-yl)methyl)-(2,3,4,5,6-pentafluorophenyl)sulfonamido)acetamide]	0.01 to 1000 nM	4.12 to 9.23 h	
CC(C)(C)c1cc(CN(C(=O)CN(Cc2ccc(Cl)cc2)S(=O)(=O)c2c(F)c(F)c(F)c(F)c2F)c2ccc(O)nc2)cc(C2CC2)c1 [Compound 1002, N-(3-(tert-butyl)-5-cyclopropylbenzyl)-2-(N-(4-chlorobenzyl)-(2,3,4,5,6-pentafluorophenyl)sulfonamido)-N-(6-hydroxypyridin-3-yl) acetamide]	1000 to 3160 nM	9.23 to 1670 h	
CNc1c(N(C)CCN(Cc2cc(C3CC3)cc(C(C)(C)C)c2)C(=O)CN(Cc2ccccc2F)S(=O)(=O)c2c(F)c(F)c(F)c(F)c2F)c(=O)c1=O [Compound 1016, N-(3-(tert-butyl)-5-cyclopropylbenzyl)-N-(2-(methyl(2-(methylamino)-3,4-dioxocyclobut-1-en-1-yl)amino)ethyl)-2-(N-(2-fluorobenzyl)-(2,3,4,5,6-pentafluorophenyl)sulfonamido)acetamide]	0.01 to 1000 nM		
CC(C)(C)c1cc(CN(C(=O)CN(Cc2ccc(Cl)cc2)S(=O)(=O)c2c(F)c(F)c(F)c(F)c2F)C2=CNC(=O)NC2)cc(C2CC2)c1 [Compound 1018, N-(3-(tert-butyl)-5-cyclopropylbenzyl)-2-(N-(4-chlorobenzyl)-(2,3,4,5,6-pentafluorophenyl)sulfonamido)-N-(2-oxo-1,2,3,4-tetrahydropyrimidin-5-yl)acetamide]			IC50 (MV4-11 cells; Homo sapiens, Table 4, read-out: IC50-MV-4-11): 1000 to 3160 nM
CNc1c(NCCN(Cc2cc(C3CC3)cc(C(C)(C)C)c2)C(=O)CN(Cc2ccccc2F)S(=O)(=O)c2c(F)c(F)c(F)c(F)c2F)c(=O)c1=O [Compound 1013, N-(3-(tert-butyl)-5-cyclopropylbenzyl)-N-(2-((2-(methylamino)-3,4-dioxocyclobut-1-en-1-yl)amino)ethyl)-2-(N-(2-fluorobenzyl)-(2,3,4,5,6-pentafluorophenyl)sulfonamido)acetamide]	0.01 to 1000 nM	9.23 to 1670 h	
COc1ccc(N(Cc2cc(C3CC3)cc(C(C)(C)C)c2)C(=O)CN(Cc2ccc(Cl)cc2)S(=O)(=O)c2c(F)c(F)c(F)c(F)c2F)cn1 [Compound 1005, N-(3-(tert-butyl)-5-cyclopropylbenzyl)-2-(N-(4-chlorobenzyl)-(2,3,4,5,6-pentafluorophenyl)sulfonamido)-N-(6-methoxypyridin-3-yl) acetamide]	3160 to 100000 nM		
CN(C)c1c(NCCN(Cc2cc(C3CC3)cc(C(C)(C)C)c2)C(=O)CN(Cc2ccccc2F)S(=O)(=O)c2c(F)c(F)c(F)c(F)c2F)c(=O)c1=O [Compound 1010, N-(3-(tert-butyl)-5-cyclopropylbenzyl)-N-(2-((2-(dimethylamino)-3,4-dioxocyclobut-1-en-1-yl)amino)ethyl)-2-(N-(2-fluorobenzyl)-(2,3,4,5,6-pentafluorophenyl)sulfonamido)acetamide]	0.01 to 1000 nM	9.23 to 1670 h	
CC(C)(C)c1cc(CN(C(=O)CN(Cc2ccc(Cl)cc2)S(=O)(=O)c2c(F)c(F)c(F)c(F)c2F)c2cnc(N)nc2)cc(C2CC2)c1 [Compound 1006, N-(2-aminopyrimidin-5-yl)-N-(3-(tert-butyl)-5-cyclopropylbenzyl)-2-(N-(4-chlorobenzyl)-(2,3,4,5,6-pentafluorophenyl)sulfonamido)acetamide]	1000 to 3160 nM	9.23 to 1670 h	
